PubChem BioAssay AID1963421 (Molecular Pharmacology Branch, DTP, NCI, 2024)
pIC50: −log10 of the molar value. “And” between values parts separate entries of the source, which are not always exact repeats. Identical values can stand only once.

Tested on: 519858-162-T-J1-PDC complex spheroid growth, % test/control
Assay: Anticancer human tumor 519858-162-T-J1-PDC patient-derived colon adenocarcinoma cell line growth inhibition [Asc]
Settings: for viability, T/C: stronger effect = lower value
Procedure, shortened: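 Concentration series start at each agent's clinical Cmax, or at 10 microM when none is established, and drop in half-log steps; agents are applied alone or together to complex spheroids built with HUVEC and hMSC.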
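Note: seven day drug exposure begun three days after spheroid seeding.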
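Throughout, for viability, T/C: 100% = DMSO vehicle wells and lower values mean less viable spheroid.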

Q: What does the source list for `NC1CCC(NC2CC2c2ccccc2)CC1` (stereo not drawn) + CCN1C(C(=O)NC23CCC(C(=O)O)(CC2)CC3)C(c2cccc(Cl)c2F)C2(C(=O)Nc3cc(Cl)ccc32)C12CCCCC2?
A: pIC50 (curve of first compound, second compound 0.00949 µM): < 7.00; pIC50 (curve of first compound, second compound 0.03 µM): < 7.00; pIC50 (curve of first compound, second compound 0.0949 µM): < 7.00; pIC50 (curve of first compound, second compound 0.3 µM): < 7.00; pIC50 (curve of first compound, second compound 0.949 µM): < 7.00; pIC50 (curve of first compound, second compound 3 µM): < 7.00; viability, T/C (second compound 0.00949 µM, first compound 0.000316 µM): 101%; viability, T/C (second compound 0.00949 µM, first compound 0.001 µM): 129%; viability, T/C (second compound 0.00949 µM, first compound 0.00316 µM): 130%; viability, T/C (second compound 0.00949 µM, first compound 0.01 µM): 112%; viability, T/C (second compound 0.00949 µM, first compound 0.0316 µM): 107%; viability, T/C (second compound 0.00949 µM, first compound 0.1 µM): 92.4%; viability, T/C (second compound 0.03 µM, first compound 0.000316 µM): 146%; viability, T/C (second compound 0.03 µM, first compound 0.001 µM): 149%; viability, T/C (second compound 0.03 µM, first compound 0.00316 µM): 101%; viability, T/C (second compound 0.03 µM, first compound 0.01 µM): 84.1%; viability, T/C (second compound 0.03 µM, first compound 0.0316 µM): 70.2%; viability, T/C (second compound 0.03 µM, first compound 0.1 µM): 110%; viability, T/C (second compound 0.0949 µM, first compound 0.000316 µM): 136%; viability, T/C (second compound 0.0949 µM, first compound 0.001 µM): 127%; viability, T/C (second compound 0.0949 µM, first compound 0.00316 µM): 136%; viability, T/C (second compound 0.0949 µM, first compound 0.01 µM): 124%; viability, T/C (second compound 0.0949 µM, first compound 0.0316 µM): 128%; viability, T/C (second compound 0.0949 µM, first compound 0.1 µM): 107%; viability, T/C (second compound 0.3 µM, first compound 0.000316 µM): 101%; viability, T/C (second compound 0.3 µM, first compound 0.001 µM): 82%; viability, T/C (second compound 0.3 µM, first compound 0.00316 µM): 99.6%; viability, T/C (second compound 0.3 µM, first compound 0.01 µM): 95.7%; viability, T/C (second compound 0.3 µM, first compound 0.0316 µM): 95.4%; viability, T/C (second compound 0.3 µM, first compound 0.1 µM): 129%; viability, T/C (second compound 0.949 µM, first compound 0.000316 µM): 97.5%; viability, T/C (second compound 0.949 µM, first compound 0.001 µM): 83.1%; viability, T/C (second compound 0.949 µM, first compound 0.00316 µM): 117%; viability, T/C (second compound 0.949 µM, first compound 0.01 µM): 89.1%; viability, T/C (second compound 0.949 µM, first compound 0.0316 µM): 89.9%; viability, T/C (second compound 0.949 µM, first compound 0.1 µM): 91%; viability, T/C (second compound 3 µM, first compound 0.000316 µM): 66.9%; viability, T/C (second compound 3 µM, first compound 0.001 µM): 86.8%; viability, T/C (second compound 3 µM, first compound 0.00316 µM): 74.4%; viability, T/C (second compound 3 µM, first compound 0.01 µM): 66.3%; viability, T/C (second compound 3 µM, first compound 0.0316 µM): 74.3%; viability, T/C (second compound 3 µM, first compound 0.1 µM): 89.2%

Q: How did the viability, T/C (compound 0.00316 µM) turn out when `O=C(c1ccc(F)c(F)c1Nc1ccc(I)cc1F)N1CC(O)([C@@H]2CCCCN2)C1` was run?
A: 85.1% and 106% and 91%

Q: What about the viability, T/C (compound 0.01 µM) of the same compound?
A: 92.7% and 96% and 89.8%

Q: What about the viability, T/C (compound 0.0316 µM) of the same compound?
A: 61.4% and 68.8% and 91.4%

Q: What about the viability, T/C (compound 0.1 µM) of the same compound?
A: 71.8% and 85.1% and 80.8%

Q: And the viability, T/C (compound 0.316 µM)?
A: 38.6% and 49.1% and 46.9%

Q: What about the viability, T/C (compound 1 µM) of the same compound?
A: 18.4% and 19.7% and 19.3%

Q: What about the pIC50 (curve of compound) of the same compound?
A: 6.69 and 6.49 and 6.55

Q: With `Cc1nc(N2CCC3(CC2)COC(C)C3N)c(CO)nc1Sc1ccnc(N)c1Cl` (stereo not drawn) as the compound, how does the viability, T/C (compound 0.00949 µM) read?
A: 94.3% and 68.7% and 97.6%

Q: What about the viability, T/C (compound 0.03 µM) of the same compound?
A: 86.9% and 76% and 58.9%

Q: And the viability, T/C (compound 0.0949 µM)?
A: 76.2% and 77.3% and 83.6%

Q: And the viability, T/C (compound 0.3 µM)?
A: 76.3% and 77.2% and 97.4%

Q: What about the viability, T/C (compound 0.949 µM) of the same compound?
A: 76.3% and 78.3% and 53%

Q: And the viability, T/C (compound 3 µM)?
A: 70.9% and 57.7% and 49.1%

Q: What about the pIC50 (curve of compound) of the same compound?
A: < 5.52 and 5.64

Q: `O=C(c1cc(Cc2n[nH]c(=O)c3ccccc23)ccc1F)N1CCN(C(=O)C2CC2)CC1` + Cc1c(S(C)(=O)=O)c(-c2cc(F)cc(N3CCN(c4ccc(NS(=O)(=O)c5ccc(NC(CCN6CCC(C(=O)OCCCP(=O)(O)O)CC6)CSc6ccccc6)c(S(=O)(=O)C(F)(F)F)c5)cc4)CC3)c2)c(-c2ccc(Cl)cc2)n1C(C)C was tested. Which pIC50 (curve of first compound, second compound 0.0316 µM) did it give?
A: < 5.00

Q: And the pIC50 (curve of first compound, second compound 0.1 µM)?
A: < 5.00

Q: And the pIC50 (curve of first compound, second compound 0.316 µM)?
A: < 5.00

Q: And the pIC50 (curve of first compound, second compound 1 µM)?
A: < 5.00

Q: What about the pIC50 (curve of first compound, second compound 3.16 µM) of the same compound?
A: < 5.00

Q: And the pIC50 (curve of first compound, second compound 10 µM)?
A: < 5.00

Q: What about the viability, T/C (second compound 0.0316 µM, first compound 0.0316 µM) of the same compound?
A: 68.1%

Q: And the viability, T/C (second compound 0.0316 µM, first compound 0.1 µM)?
A: 92.3%

Q: And the viability, T/C (second compound 0.0316 µM, first compound 0.316 µM)?
A: 77.4%

Q: What about the viability, T/C (second compound 0.0316 µM, first compound 1 µM) of the same compound?
A: 104%

Q: What about the viability, T/C (second compound 0.0316 µM, first compound 3.16 µM) of the same compound?
A: 91.5%

Q: And the viability, T/C (second compound 0.0316 µM, first compound 10 µM)?
A: 68.3%

Q: What about the viability, T/C (second compound 0.1 µM, first compound 0.0316 µM) of the same compound?
A: 92.1%

Q: What about the viability, T/C (second compound 0.1 µM, first compound 0.1 µM) of the same compound?
A: 107%

Q: And the viability, T/C (second compound 0.1 µM, first compound 0.316 µM)?
A: 102%

Q: And the viability, T/C (second compound 0.1 µM, first compound 1 µM)?
A: 75.8%

Q: What about the viability, T/C (second compound 0.1 µM, first compound 3.16 µM) of the same compound?
A: 58.7%

Q: What about the viability, T/C (second compound 0.1 µM, first compound 10 µM) of the same compound?
A: 78.3%

Q: What about the viability, T/C (second compound 0.316 µM, first compound 0.0316 µM) of the same compound?
A: 100%

Q: And the viability, T/C (second compound 0.316 µM, first compound 0.1 µM)?
A: 129%

Q: What about the viability, T/C (second compound 0.316 µM, first compound 0.316 µM) of the same compound?
A: 77.8%

Q: And the viability, T/C (second compound 0.316 µM, first compound 1 µM)?
A: 87.2%

Q: What about the viability, T/C (second compound 0.316 µM, first compound 3.16 µM) of the same compound?
A: 101%

Q: And the viability, T/C (second compound 0.316 µM, first compound 10 µM)?
A: 62.9%

Q: And the viability, T/C (second compound 1 µM, first compound 0.0316 µM)?
A: 95.4%

Q: What about the viability, T/C (second compound 1 µM, first compound 0.1 µM) of the same compound?
A: 100%

Q: What about the viability, T/C (second compound 1 µM, first compound 0.316 µM) of the same compound?
A: 71.6%

Q: And the viability, T/C (second compound 1 µM, first compound 1 µM)?
A: 73.8%

Q: What about the viability, T/C (second compound 1 µM, first compound 3.16 µM) of the same compound?
A: 93.1%

Q: What about the viability, T/C (second compound 1 µM, first compound 10 µM) of the same compound?
A: 100%

Q: And the viability, T/C (second compound 3.16 µM, first compound 0.0316 µM)?
A: 76.5%

Q: And the viability, T/C (second compound 3.16 µM, first compound 0.1 µM)?
A: 94%

Q: What about the viability, T/C (second compound 3.16 µM, first compound 0.316 µM) of the same compound?
A: 74.8%

Q: And the viability, T/C (second compound 3.16 µM, first compound 1 µM)?
A: 84.1%

Q: What about the viability, T/C (second compound 3.16 µM, first compound 3.16 µM) of the same compound?
A: 70.7%

Q: And the viability, T/C (second compound 3.16 µM, first compound 10 µM)?
A: 86.6%

Q: What about the viability, T/C (second compound 10 µM, first compound 0.0316 µM) of the same compound?
A: 71.6%

Q: And the viability, T/C (second compound 10 µM, first compound 0.1 µM)?
A: 101%

Q: And the viability, T/C (second compound 10 µM, first compound 0.316 µM)?
A: 58.2%

Q: What about the viability, T/C (second compound 10 µM, first compound 1 µM) of the same compound?
A: 72.9%

Q: What about the viability, T/C (second compound 10 µM, first compound 3.16 µM) of the same compound?
A: 65.2%

Q: What about the viability, T/C (second compound 10 µM, first compound 10 µM) of the same compound?
A: 57.6%
